Test results reported in the supplement of paper PMC4862054.

How the values were obtained:
Assay in all cases: normalised viability (% of control), CellTiter-Blue; higher = more viable cells (about 100 = DMSO control)
Conditions in all cases: incubation time: 72 h
[1] = tested on: CAL-51
Protocol: (§1)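 DSRT, CellTiter-Blue viability, 72 h incubation. Signal is normalised to DMSO and benzethonium chloride controls. Value is the normalised response at dose 6.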

[2] = tested on: CAL-148
Protocol: as §1

[3] = tested on: CAL-85-1
Protocol: as §1

[4] = tested on: MDA-MB-453
Protocol: as §1

[5] = tested on: DU-4475
Protocol: as §1

[6] = tested on: HDQ-P1
Protocol: as §1

[7] = tested on: MDA-MB-436
Procedure, shortened: (§2)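 Each value is normalised viability at a single listed concentration of the series. Breast cancer cell lines in 384-well plates were incubated 72 h with compound and read by CellTiter-Blue fluorescence at 560/590 nm, with vehicle set to 100 and a positive kill control to 0 on every plate.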

[8] = tested on: CAL-51; remark: listed apart in the source
Procedure, shortened: as §2

[9] = tested on: MFM-223
Procedure, shortened: as §2

[10] = tested on: CAL-85-1; remark: listed apart in the source
Procedure, shortened: as §2

[11] = tested on: Hs578T
Procedure, shortened: as §2

[12] = tested on: BT-474
Procedure, shortened: as §2

[13] = tested on: DU-4475; remark: listed apart in the source
Procedure, shortened: as §2

[14] = tested on: BT-549
Procedure, shortened: as §2

[15] = tested on: SK-BR-3
Procedure, shortened: as §2

[16] = tested on: HDQ-P1; remark: listed apart in the source
Procedure, shortened: as §2

[17] = tested on: CAL-51; remark: listed apart in the source
Protocol: (§3)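 DSRT, CellTiter-Blue viability, 72 h incubation. Signal is normalised to DMSO and benzethonium chloride controls. Value is the normalised response at dose 8.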

[18] = tested on: CAL-148; remark: listed apart in the source
Protocol: as §3

[19] = tested on: CAL-85-1; remark: listed apart in the source
Protocol: as §3

[20] = tested on: MDA-MB-453; remark: listed apart in the source
Protocol: as §3

[21] = tested on: DU-4475; remark: listed apart in the source
Protocol: as §3

[22] = tested on: HDQ-P1; remark: listed apart in the source
Protocol: as §3

[23] = tested on: CAL-51; remark: listed apart in the source
Protocol: (§4)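 DSRT, CellTiter-Blue viability, 72 h incubation. Signal is normalised to DMSO and benzethonium chloride controls. Value is the normalised response at dose 9.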

[24] = tested on: CAL-148; remark: listed apart in the source
Protocol: as §4

[25] = tested on: CAL-85-1; remark: listed apart in the source
Protocol: as §4

[26] = tested on: MDA-MB-453; remark: listed apart in the source
Protocol: as §4

[27] = tested on: DU-4475; remark: listed apart in the source
Protocol: as §4

[28] = tested on: HDQ-P1; remark: listed apart in the source
Protocol: as §4

O=C(/C=C/c1cccnc1)NCCCCC1CCN(C(=O)c2ccccc2)CC1 [FK-866]
normalised viability ([1]; 30 nM): 48.8% | normalised viability ([2]; 30 nM): 73.7% | normalised viability ([3]; 30 nM): 72.4% | normalised viability ([4]; 30 nM): 23.8% | normalised viability ([5]; 30 nM): 31.4% | normalised viability ([6]; 30 nM): 64.3% | normalised viability ([7]; 10 nM): 38% | normalised viability ([8]; 1 nM): 102% | normalised viability ([9]; 10 nM): 23.2% | normalised viability ([10]; 1 nM): 103% | normalised viability ([11]; 10 nM): 20.1% | normalised viability ([12]; 10 nM): 91.6% | normalised viability ([13]; 1 nM): 84.9% | normalised viability ([14]; 10 nM): 38.6% | normalised viability ([15]; 10 nM): 91.2% | normalised viability ([16]; 1 nM): 120% | normalised viability ([17]; 300 nM): 34.6% | normalised viability ([18]; 300 nM): 45.6% | normalised viability ([19]; 300 nM): 54% | normalised viability ([20]; 300 nM): 22.4% | normalised viability ([21]; 300 nM): 2.9% | normalised viability ([22]; 300 nM): 51.6% | normalised viability ([23]; 1000 nM): 34% | normalised viability ([24]; 1000 nM): 44.2% | normalised viability ([25]; 1000 nM): 49.2% | normalised viability ([26]; 1000 nM): 19.9% | normalised viability ([27]; 1000 nM): 3.53% | normalised viability ([28]; 1000 nM): 58.5%

N#Cc1ccc(C(c2ccc(C#N)cc2)n2cncn2)cc1 [Letrozole]
normalised viability ([1]; 300 nM): 104% | normalised viability ([2]; 300 nM): 101% | normalised viability ([3]; 300 nM): 86.4% | normalised viability ([4]; 300 nM): 100% | normalised viability ([5]; 300 nM): 81.2% | normalised viability ([6]; 300 nM): 69.4% | normalised viability ([7]; 100 nM): 106% | normalised viability ([8]; 10 nM): 110% | normalised viability ([9]; 100 nM): 74.9% | normalised viability ([10]; 10 nM): 90.3% | normalised viability ([11]; 100 nM): 88.1% | normalised viability ([12]; 100 nM): 102% | normalised viability ([13]; 10 nM): 99.8% | normalised viability ([14]; 100 nM): 97% | normalised viability ([15]; 100 nM): 83% | normalised viability ([16]; 10 nM): 101% | normalised viability ([17]; 3000 nM): 111% | normalised viability ([18]; 3000 nM): 95.5% | normalised viability ([19]; 3000 nM): 90% | normalised viability ([20]; 3000 nM): 105% | normalised viability ([21]; 3000 nM): 85.8% | normalised viability ([22]; 3000 nM): 94% | normalised viability ([23]; 10000 nM): 96.3% | normalised viability ([24]; 10000 nM): 92.4% | normalised viability ([25]; 10000 nM): 70.3% | normalised viability ([26]; 10000 nM): 51.8% | normalised viability ([27]; 10000 nM): 82.9% | normalised viability ([28]; 10000 nM): 93%

CCN(CC)CCCC(C)Nc1c2ccc(Cl)cc2nc2ccc(OC)cc12 (configuration not stated) [Mepacrine]
normalised viability ([1]; 29.7 nM): 86.1% | normalised viability ([1]; 300 nM): 104% | normalised viability ([2]; 29.7 nM): 105% | normalised viability ([2]; 300 nM): 102% | normalised viability ([3]; 29.7 nM): 101% | normalised viability ([3]; 300 nM): 100% | normalised viability ([4]; 29.7 nM): 103% | normalised viability ([4]; 300 nM): 101% | normalised viability ([5]; 29.7 nM): 88.3% | normalised viability ([5]; 300 nM): 80.9% | normalised viability ([6]; 29.7 nM): 117% | normalised viability ([6]; 300 nM): 109% | normalised viability ([7]; 9.9 nM): 108% | normalised viability ([7]; 100 nM): 91.3% | normalised viability ([8]; 0.99 nM): 95.9% | normalised viability ([8]; 10 nM): 99.6% | normalised viability ([9]; 9.9 nM): 97% | normalised viability ([9]; 100 nM): 97.9% | normalised viability ([10]; 0.99 nM): 99% | normalised viability ([10]; 10 nM): 92.6% | normalised viability ([11]; 9.9 nM): 114% | normalised viability ([11]; 100 nM): 110% | normalised viability ([12]; 9.9 nM): 113% | normalised viability ([12]; 100 nM): 109% | normalised viability ([13]; 0.99 nM): 83.1% | normalised viability ([13]; 10 nM): 96.4% | normalised viability ([14]; 9.9 nM): 86.1% | normalised viability ([14]; 100 nM): 90.3% | normalised viability ([15]; 9.9 nM): 99.8% | normalised viability ([15]; 100 nM): 91.3% | normalised viability ([16]; 0.99 nM): 117% | normalised viability ([16]; 10 nM): 114% | normalised viability ([17]; 297 nM): 93.3% | normalised viability ([17]; 3000 nM): 77.8% | normalised viability ([18]; 297 nM): 73.2% | normalised viability ([18]; 3000 nM): 56.4% | normalised viability ([19]; 297 nM): 87.8% | normalised viability ([19]; 3000 nM): 59.5% | normalised viability ([20]; 297 nM): 89% | normalised viability ([20]; 3000 nM): 43.1% | normalised viability ([21]; 297 nM): 84% | normalised viability ([21]; 3000 nM): 69.1% | normalised viability ([22]; 297 nM): 56.8% | normalised viability ([22]; 3000 nM): 42.9% | normalised viability ([23]; 990 nM): 34.9% | normalised viability ([23]; 10000 nM): 12.3% | normalised viability ([24]; 990 nM): 35.4% | normalised viability ([24]; 10000 nM): 12.4% | normalised viability ([25]; 990 nM): 44.1% | normalised viability ([25]; 10000 nM): 15.1% | normalised viability ([26]; 990 nM): 15.7% | normalised viability ([26]; 10000 nM): 2.2% | normalised viability ([27]; 990 nM): 30.9% | normalised viability ([27]; 10000 nM): 4.09% | normalised viability ([28]; 990 nM): 23.8% | normalised viability ([28]; 10000 nM): 6.19%
